Results published in patent publication US20230093861A1, “RAPAMYCIN ANALOGS AS MTOR INHIBITORS” (Revolution Medicines, Inc., priority 2017, published 2023).
Like-named read-outs stand apart in the source and are kept apart here.

Legend:
P-4E-BP1 (T37/46) = assay: Cell based AlphaLISA assay, inhibition of P-4E-BP1 (T37/46) (mTORC1 substrate phosphorylation) in MDA-MB-468 cells; settings: Homo sapiens, two to four hours at 37° C.
Procedure, shortened: (§1)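 AlphaLISA SureFire Ultra read-out of P-4E-BP1 (T37/46), P-P70S6K (T389) and P-Akt (S473) in MDA-MB-468 cells after compound treatment; cells lysed in kit buffer. Alpha signal read in duplicate; IC50 from normalized concentration-response regression with control-based normalization.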

P-P70S6K (T389) = assay: Cell based AlphaLISA assay, inhibition of P-P70S6K (T389) (mTORC1 substrate phosphorylation) in MDA-MB-468 cells; settings: Homo sapiens, 4 h, two to four hours at 37° C.
Procedure, shortened: as §1

P-Akt (S473) = assay: Cell based AlphaLISA assay, inhibition of P-Akt (S473) (mTORC2 substrate phosphorylation) in MDA-MB-468 cells; settings: Homo sapiens, two to four hours at 37° C.
Procedure, shortened: as §1

[1] = MDA-MB-468, 4 h, AlphaLISA, read-out: pIC50 for Inhibition of mTORC1 and mTORC2 Substrate Phosphorylation, P-4E-BP1-(T37/46) (converted)
[2] = AlphaLISA, read-out: pIC50 for Inhibition of mTORC1 and mTORC2 Substrate Phosphorylation, P-P70S6K-(T389) (converted)
[3] = MDA-MB-468, 4 h, AlphaLISA, read-out: pIC50 for Inhibition of mTORC1 and mTORC2 Substrate Phosphorylation, p-AKT 1/2/3 -(S473) (converted)
[4] = 4 h, AlphaLISA, read-out: pIC50 for Inhibition of mTORC1 and mTORC2 Substrate Phosphorylation, P-4E-BP1-(T37/46) (converted)
[5] = 4 h, AlphaLISA, read-out: pIC50 for Inhibition of mTORC1 and mTORC2 Substrate Phosphorylation, p-AKT 1/2/3 -(S473) (converted)

SMILES | IC50 (P-4E-BP1 (T37/46); [1]) [µM] | IC50 (P-P70S6K (T389); [2]) [µM] | IC50 (P-Akt (S473); [3]) [µM] | IC50 (P-4E-BP1 (T37/46); [4]) [µM] | IC50 (P-Akt (S473); [5]) [µM] | IC50 (P-4E-BP1 (T37/46); MDA-MB-468, 4 h, AlphaLisa SureFire Ultra, read-out: IC50 for Inhibition of mTORC1 and mTORC2 Substrate Phosphorylation, p-4E-BP1-(T37/46)) [µM] | IC50 (P-P70S6K (T389); AlphaLisa SureFire Ultra, read-out: IC50 for Inhibition of mTORC1 and mTORC2 Substrate Phosphorylation, p-P70S6K-(T389)) [µM] | IC50 (P-Akt (S473); MDA-MB-468, 4 h, AlphaLisa SureFire Ultra, read-out: IC50 for Inhibition of mTORC1 and mTORC2 Substrate Phosphorylation, p-AKT1/2/3-(S473)) [µM]
CO[C@H]1C[C@@H]2CC[C@@H](C)[C@@](O)(O2)C(=O)C(=O)N2CCCC[C@H]2C(=O)O[C@H]([C@H](C)C[C@@H]2CC[C@H](n3cc(CCCC(=O)NCCOCCOCCOCCC(=O)NCCOCCOCCOCCC(=O)NCCCCn4nc(-c5ccc6oc(N)nc6c5)c5c(N)ncnc54)nn3)[C@H](OC)C2)C/C(=N/OC(C)(C)C)[C@H](C)/C=C(\C)[C@@H](O)[C@@H](OC)C(=O)[C@H](C)C[C@H](C)/C=C/C=C/C=C/1C [Example 177] | > 1 | 0.01 to 1 | > 1 | – | – | – | – | –
CO[C@H]1C[C@@H]2CC[C@@H](C)[C@@](O)(O2)C(=O)C(=O)N2CCCC[C@H]2C(=O)O[C@H]([C@H](C)C[C@@H]2CC[C@H](n3cc(CCCC(=O)NCCOCCOCCOCCC(=O)NCCOCCOCCOCCC(=O)NCCCCn4nc(-c5ccc6oc(N)nc6c5)c5c(N)ncnc54)nn3)[C@H](OC)C2)C/C(=N/OCc2ccccc2)[C@H](C)/C=C(\C)[C@@H](O)[C@@H](OC)C(=O)[C@H](C)C[C@H](C)/C=C/C=C/C=C/1C [Example 174] | > 1 | 0.01 to 1 | > 1 | – | – | – | – | –
CO[C@H]1C[C@@H]2CC[C@@H](C)[C@@](O)(O2)C(=O)C(=O)N2CCCC[C@H]2C(=O)O[C@H]([C@H](C)C[C@@H]2CC[C@@H](OCc3cccc(-c4cnc(N5CCN(Cc6cn(CCOCCOCCOCCOCCC(=O)NCCCCn7nc(-c8ccc9oc(N)nc9c8)c8c(N)ncnc87)nn6)C(CO)C5)nc4)c3)[C@H](OC)C2)CC(=O)[C@H](C)/C=C(\C)[C@@H](O)[C@@H](OC)C(=O)[C@H](C)C[C@H](C)/C=C/C=C/C=C/1C (stereo partly drawn) [Example 24] | < 0.00316 | < 0.001 | 0.00316 to 0.0316 | – | – | – | – | –
CO[C@H]1C[C@@H]2CC[C@@H](C)[C@@](O)(O2)C(=O)C(=O)N2CCCC[C@H]2C(=O)O[C@H]([C@H](C)C[C@@H]2CC[C@H](n3cc(COC(=O)NCCOCCOCCOCCOCCC(=O)NCCOCCOCCOCCOCCC(=O)NCCCCn4nc(-c5cc6cc(O)ccc6[nH]5)c5c(N)ncnc54)nn3)[C@H](OC)C2)CC(=O)[C@H](C)/C=C(\C)[C@@H](O)[C@@H](OC)C(=O)[C@H](C)C[C@H](C)/C=C/C=C/C=C/1C [Example 127] | 0.00316 to 0.0316 | 0.001 to 0.01 | 0.0316 to 1 | – | – | – | – | –
CO[C@H]1C[C@@H]2CC[C@@H](C)[C@@](O)(O2)C(=O)C(=O)N2CCCC[C@H]2C(=O)O[C@H]([C@H](C)C[C@@H]2CC[C@@H](OCCCCc3cn(CCOCCOCCOCCOCCOCCOCCC(=O)N(C)CCCCn4nc(-c5ccc6oc(N)nc6c5)c5c(N)ncnc54)nn3)[C@H](OC)C2)CC(=O)[C@H](C)/C=C(\C)[C@@H](O)[C@@H](OC)C(=O)[C@H](C)C[C@H](C)/C=C/C=C/C=C/1C [Example 84] | < 0.00316 | < 0.001 | 0.00316 to 0.0316 | – | – | – | – | –
CO[C@H]1C[C@@H]2CC[C@@H](C)[C@@](O)(O2)C(=O)C(=O)N2CCCC[C@H]2C(=O)O[C@H]([C@H](C)C[C@@H]2CC[C@H](n3cc(COC(=O)NCCOCCOCCOCCC(=O)NCCOCCOCCC(=O)NCCCCn4nc(-c5ccc6oc(N)nc6c5)c5c(N)ncnc54)nn3)[C@H](OC)C2)CC(=O)[C@H](C)/C=C(\C)[C@@H](O)[C@@H](OC)C(=O)[C@H](C)C[C@H](C)/C=C/C=C/C=C/1C [Example 120] | 0.00316 to 0.0316 | 0.001 to 0.01 | 0.0316 to 1 | – | – | – | – | –
CO[C@H]1C[C@@H]2CC[C@@H](C)[C@@](O)(O2)C(=O)C(=O)N2CCCC[C@H]2C(=O)O[C@H]([C@H](C)C[C@@H]2CC[C@@H](OCCCCc3cn(CCOCCOCCOCCOCCOCCOCCOCCOCCC(=O)N4CCc5cc(Cn6nc(-c7ccc8oc(N)nc8c7)c7c(N)ncnc76)ccc5C4)nn3)[C@H](OC)C2)C[C@@H](OC)[C@H](C)/C=C(\C)[C@@H](O)[C@@H](OC)C(=O)[C@H](C)C[C@H](C)/C=C/C=C/C=C/1C [Example 92] | – | < 0.001 | – | 0.00316 to 0.0316 | 0.0316 to 1 | – | – | –
CO[C@H]1C[C@@H]2CC[C@@H](C)[C@@](O)(O2)C(=O)C(=O)N2CCCC[C@H]2C(=O)O[C@H]([C@H](C)C[C@@H]2CC[C@H](n3cc(COC(=O)NCCOCCOCCC(=O)NCc4cnc(N5CCN(c6ncc(C(=O)NCCCCn7nc(-c8cc9cc(O)ccc9[nH]8)c8c(N)ncnc87)cn6)CC5)nc4)nn3)[C@H](OC)C2)CC(=O)[C@H](C)/C=C(\C)[C@@H](O)[C@@H](OC)C(=O)[C@H](C)C[C@H](C)/C=C/C=C/C=C/1C [Example 182] | > 1 | < 0.001 | > 1 | – | – | – | – | –
CO[C@H]1C[C@@H]2CC[C@@H](C)[C@@](O)(O2)C(=O)C(=O)N2CCCC[C@H]2C(=O)O[C@H]([C@H](C)C[C@@H]2CC[C@@H](OCc3cccc(-c4cnc(N5CCN(C(=O)CCc6cn(CCOCCOCCC(=O)NCCCCn7nc(-c8ccc9oc(N)nc9c8)c8c(N)ncnc87)nn6)CC5)nc4)c3)[C@H](OC)C2)CC(=O)[C@H](C)/C=C(\C)[C@@H](O)[C@@H](OC)C(=O)[C@H](C)C[C@H](C)/C=C/C=C/C=C/1C [Example 47] | < 0.00316 | < 0.001 | 0.00316 to 0.0316 | – | – | – | – | –
CO/N=C1/C[C@@H]([C@H](C)C[C@@H]2CC[C@H](n3cc(CCCC(=O)NCCOCCOCCOCCC(=O)NCCOCCOCCC(=O)NCCCCn4nc(-c5cc6cc(O)ccc6[nH]5)c5c(N)ncnc54)nn3)[C@H](OC)C2)OC(=O)[C@@H]2CCCCN2C(=O)C(=O)[C@]2(O)O[C@@H](CC[C@H]2C)C[C@H](OC)/C(C)=C/C=C/C=C/[C@@H](C)C[C@@H](C)C(=O)[C@H](OC)[C@H](O)/C(C)=C/[C@H]1C [Example 170] | > 1 | 0.01 to 1 | > 1 | – | – | – | – | –
CO[C@H]1C[C@@H]2CC[C@@H](C)[C@@](O)(O2)C(=O)C(=O)N2CCCC[C@H]2C(=O)O[C@H]([C@H](C)C[C@@H]2CC[C@H](n3cc(-c4cccc(C(=O)NCCOCCOCCOCCOCCC(=O)NCCOCCOCCOCCOCCC(=O)NCCCCn5nc(-c6ccc7oc(N)nc7c6)c6c(N)ncnc65)c4)nn3)[C@H](OC)C2)CC(=O)[C@H](C)/C=C(\C)[C@@H](O)[C@@H](OC)C(=O)[C@H](C)C[C@H](C)/C=C/C=C/C=C/1C [Example 141] | 0.00316 to 0.0316 | 0.001 to 0.01 | 0.00316 to 0.0316 | – | – | – | – | –
CO[C@H]1C[C@@H]2CC[C@@H](C)[C@@](O)(O2)C(=O)C(=O)N2CCCC[C@H]2C(=O)O[C@H]([C@H](C)C[C@@H]2CC[C@@H](OCCCCc3cn(CCOCCOCCOCCOCCNC(=O)CCCCC(=O)NCCCCn4nc(-c5ccc6oc(N)nc6c5)c5c(N)ncnc54)nn3)[C@H](OC)C2)CC(=O)[C@H](C)/C=C(\C)[C@@H](O)[C@@H](OC)C(=O)[C@H](C)C[C@H](C)/C=C/C=C/C=C/1C [Example 103] | < 0.00316 | < 0.001 | 0.00316 to 0.0316 | – | – | – | – | –
CO[C@H]1C[C@@H]2CC[C@@H](C)[C@@](O)(O2)C(=O)C(=O)N2CCCC[C@H]2C(=O)O[C@H]([C@H](C)C[C@@H]2CC[C@H](n3cc(-c4cnc(N5CCN(c6ncc(C(=O)NCCOCCOCCC(=O)NCCCCn7nc(-c8ccc9oc(N)nc9c8)c8c(N)ncnc87)cn6)CC5)nc4)nn3)[C@H](OC)C2)CC(=O)[C@H](C)/C=C(\C)[C@@H](O)[C@@H](OC)C(=O)[C@H](C)C[C@H](C)/C=C/C=C/C=C/1C [Example 111] | 0.0316 to 1 | < 0.001 | 0.0316 to 1 | – | – | – | – | –
CO[C@H]1C[C@@H]2CC[C@@H](C)[C@@](O)(O2)C(=O)C(=O)N2CCCC[C@H]2C(=O)O[C@H]([C@H](C)C[C@@H]2CC[C@@H](OCCCCc3cn(CCOCCOCCOCCOCCOCCOCCOCCOCCC(=O)N4CCC(Cn5nc(-c6ccc7oc(N)nc7c6)c6c(N)ncnc65)CC4)nn3)[C@H](OC)C2)CC(=O)[C@H](C)/C=C(\C)[C@@H](O)[C@@H](OC)C(=O)[C@H](C)C[C@H](C)/C=C/C=C/C=C/1C [Example 90] | – | < 0.001 | – | < 0.00316 | < 0.00316 | – | – | –
CO[C@H]1C[C@@H]2CC[C@@H](C)[C@@](O)(O2)C(=O)C(=O)N2CCCC[C@H]2C(=O)O[C@H]([C@H](C)C[C@@H]2CC[C@@H](OCCCCc3cn(CCOCCOCCOCCOCCOCCOCCOCCOCCC(=O)NCCCCn4nc(-c5ccc6oc(N)nc6c5)c5c(N)ncnc54)nn3)[C@H](OC)C2)CC(=O)[C@H](C)/C=C(\C)[C@@H](O)[C@@H](OC)C(=O)[C@H](C)C[C@H](C)/C=C/C=C/C=C/1C [Example 1] | < 0.00316 | < 0.001 | < 0.00316 | – | – | 0.001 | 0.0003 | 0.0039
